What was measured:
[1] = tested on: flat warts; experiment: Clinical use in treating flat warts; type: in vivo, human
Experimental: 5 g propyl gallate was mixed with 40 ml 1,2-propylene glycol and heated to dissolve the ingredients. Then 20 ml Tween-80 and 3 ml azone were added into the mixture and mixed well. Sterile distilled water was added to the mixture to reach a final volume of 100 ml.
Clinically, flat warts were seen as slightly raised, smooth, tan or flesh colored bumps ranging in size from 1-5 mm. They typically appeared on the face, backs of hands and arms.
32 male and 28 female patients of 15-46 years old, with the average age of 23 years old, were selected for the test. These patients have had flat warts for any time from 2 weeks to 2 years. Some of the patients have tried other treatment methods for the warts. But no one had undertaken any treatment for the warts in the past 4 weeks. And no one had taken any medicine in the past 2 weeks.
The patients were randomly divided into two groups of 30 patients each. One group was treated with propyl gallate micro emulsion, the other group with 5% imiquimod cream (made by Sichuan Ming Xin Pharmaceutical Co.), which is a medicine often used for treating flat warts. The test samples were applied to the affected areas of the patient groups three times a day, in the morning, at noon and night. The treatment period was 20 days. The treatment effect was tracked for one year.
“Recovered”: all warts had disappeared or faded, the skin became flat, no new warts appeared;
“Obvious Effect”: more than 70% of the warts had disappeared, the bottom of the warts had shrunk, the top of the warts had flattened;
“Improved”: more than 30% of the warts had disappeared, the top of the warts had flattened;
“Not Effective”: less than 30% of the warts had disappeared, no change to the warts, or some new warts appeared.

[2] = tested on: secretion of HBeAg by 2.2.15 cells; experiment: Inhibition of secretion of HBeAg by Hepatitis B 2.2.15 cell line; type: cell-based, HBV; conditions: 1 μmol/ml
Excerpt: Hepatitis B 2.2.15 cell line was transfected by HBV DNA (purchased from Institute of Biochemistry and Cell Biology of Shanghai Institute for Biological Sciences or the National Center for Drug Screening) and used as the cell model for screening anti-HBV drug compounds (See Chinese Journal Of Integrated Traditional and Western Medicine on Liver Diseases, 2004, 14(3): 158). The cell culture medium DMEM (GIBCO Company), bovine serum (Hangzhou Siji Qing Biochemical Manufacturer), G418 (GIBCO Company), 3-(4,5-dimethylthiazol-2-yl)-2,5-diphenyltetrazoliumbromide (Sigma), HBsAg and HBeAg diagnostic kit (Shanghai Kehua Bio-engineering Co., Ltd).
The test compounds listed in Table 3 below were dissolved in a mixture containing 20 ml 1,2-propylene glycol and 15 ml Tween-80 and diluted with sterile saline water to 2 μmol/ml of the test compound. Then it was mixed with the cell culture medium at equal volume to obtain a solution containing 1 μmol/ml of the tested compound. Cells at the concentration of 1×10^5 cells per milliliter were inoculated to a 24-well plate at 1 ml/well. Supernatant from the cell culture mixture was collected three days later for testing.

[3] = tested on: HSV infection; experiment: External treatment of HSV infection in clinical tests; type: in vivo, human; conditions: patients with HSV infection
Excerpt: Twenty-two patients who were clinically diagnosed with HSV infection were randomly selected and divided into two groups. Acyclovir ointment and micro emulsion containing propyl gallate prepared as described in Example 1 were applied to the two groups, respectively, on the affected areas of the patients three times a day.

[4] = number of patients of 30 per group, three times a day, 20 days

CCCOC(=O)c1cc(O)c(O)c(O)c1 [Propyl gallate]
effectiveness in treating flat warts compared with 5% imiquimod cream ([1]; 20 days treatment): more effective | recurrence of the warts in recovered patients ([1]; followed for a year): none had recurrence | Recovered ([1]; number of patients of 30 per group, applied three times a day, 20 days): 22 | Improved [1, 4]: 2 | Not Effective [1, 4]: 1 | Obvious Effect [1, 4]: 5 | Effective Rate ([1]; patients recovered or with obvious effect, of 30 per group): 90% | effect on the secretion of HBeAg by the 2.2.15 cells (in words) [2]: had inhibition effect | inhibition of HBeAg secretion compared with gallic acid and 3,4-dihydroxybenzoic acid [2]: more effective | HBeAg Inhibition Rate ([2]; 2.2.15 cells, supernatant collected three days later): 12.04% | effectiveness in treating HSV infection compared with acyclovir ointment [3]: more effective | average time for recovery ([3]; applied on affected areas three times a day): 3 days
